The numbers were not newly measured in US20250375548A1, “STERILIZATION PROCESS, SYSTEM AND PRODUCT INCLUDING MOLECULAR MOBILITY ENHANCER” (TEKDRY INTERNATIONAL, INC., priority 2019, published 2025), which cites them from elsewhere.

The conditions of series [1]: @ 25° C.
The conditions of series [2]: 1,800 ppm at 44° C.

For `CCOCC` [diethyl ether], the vapor pressure in series [1] is 520 mmHg.

Regarding `CC(=O)OO` [peracetic acid, reference compound], the vapor pressure in series [1] is listed as 14.5 mmHg. As to `O=COO` [performic acid], the vapor pressure in series [1] is given as 78 mmHg. Also, the D-value result in series [2] was “lower than five”.
